# Source: patent US20240294588A1, “C2 Domain Therapeutics and Uses Thereof” (University of Maryland, Baltimore, priority 2021, published 2024)
# Entries after “also recorded” stand apart in the source; their conditions may differ. Like-named read-outs stand apart in the source and are kept apart here.
# Experiments:
# [1] = tested on: dysferlin-null A/J myofibers; test: Distribution of Venus-tagged constructs (triad junctions vs Z-disks) in transfected myofibers; type: cell-based, mouse; conditions: FIG. 6
# Text: (§1) FIGS. 2A-2E show the DYSF-C2A distribution and partial protection against loss of Ca^2+ transient and development of Ca^2+ waves after OSI. The construct in FIG. 2A was electroporated into Flexor digitorum brevis (FDB) muscles of dysferlin-null A/J mice and imaged 10 d later. […] Distribution of the Venus construct is indicated to the right. Recovery is partial (in the upper region of fiber). FIG. 2D quantitates results from several dozen fibers of each type. […] Higher levels of expression show more consistent recoveries and suppression of waves than lower levels.
# The constructs in FIG. 4A were electroporated and visualized as in FIG. 2. […] Recovery is complete. FIG. 4D quantitates results from several dozen fibers transfected with each construct. […] Note the high level of Ca release and low frequency of waves indicated by the y-intercepts at low transfection levels.
# A Venus-tagged version of the C2 domain of PKCα was expressed in both control (C57Bl/6) (FIG. 12A) and dysferlin-null (A/J) myofibers (FIG. 12B) and the transfected fibers were imaged. […] They help to explain the ability of the chimeric constructs containing Ven-C2-PKCα to potentiate the beneficial effects of the DYSF-C2A domain.
# [2] = tested on: dysferlin-null A/J myofibers; test: Ca2+ signaling: voltage-induced Ca2+ transients (Rhod-2) and Ca2+ waves before and after osmotic shock injury (OSI) in electroporated FDB myofibers; type: cell-based, mouse; conditions: for Effect on amplitude of Ca2+ transients: A/J fibers, FIG. 8; for Ca2+ signaling activity (restoring/protecting amplitude of the Ca2+ transient after OSI): construct electroporated into dysferlin-null A/J FDB fibers, Rhod-2, before and 5 min after OSI; for Ca2+ wave frequency / suppression of Ca2+ waves after OSI: construct expressed in A/J fibers; for y-intercept for Ca transient (normalized Ca release vs amount of Venus construct in each fiber) / y-intercept for wave frequency (Ca wave frequency vs amount of Venus construct in each fiber): intercept at low expression level, FIG. 2E / FIG. 4E
# Text: as §1
# To assay Ca^2+ transients, Rhod-2 was added to myofibers as the Rhod2-AM derivative at a concentration of 4.4 μM, or almost 500× higher than the concentration of BAPTA-AM that effectively restores the WT phenotype. Rhod-2 is essentially rhodamine on a BAPTA backbone, so its mode of binding Ca^2+ is identical to that of BAPTA. Rhod-2 has a (calculated) Stokes' radius ˜20% larger than BAPTA; it has a lower affinity for Ca^2+ and its solubility in DMSO is ˜20× lower than BAPTA's. Rhod-2 appears to distribute uniformly in the myoplasm under these conditions of loading.
# cultured myofibers = test: Accumulation of chelator in treated myofibers, estimated with fluorescent variant Fluo4-AM; type: cell-based; conditions: 10 nM extracellular concentration
# Description: This concentration of BAPTA in myofibers is sufficient to restore elevated myoplasmic [Ca^2+ ] of 150-200 nM to levels close to WT levels of ˜100 nM. This can explain why as little as 10 nM BAPTA-AM can restore the WT phenotype.
# dysferlin and PKCα = test: Colocalization and co-immunoprecipitation of dysferlin and PKCα; type: cell-based
# [3] = tested on: dysferlin-null A/J myofibers; conditions: dysferlin-null fibers, background / known results, cited from earlier work
# FDB muscles of A/J mice [4] = test: Membrane repair after infrared laser injury in the presence of FM4-64 dye; type: cell-based, mouse; conditions: A/J FDB muscle, FM4-64 fluorescence, area under curve
# Text: FIGS. 3A-3B show the membrane repair by the DYSF-C2A domain. FDB muscles of A/J mice were electroporated with expression plasmids for WT DYSF or DYSF-C2A. 7d later muscles were removed and injured by infrared laser illumination in the presence of FM4-64 lipophilic dye. […] Means±SEM, n=7, *p<0.01 by ANOVA followed with Tukey's post-hoc test.
# Solubility in DMSO = type: physicochemical
# FDB muscles of A/J mice [5] = conditions: dysferlin-null fibers, background / known results; cited from earlier work
compound,measurement,setting,value
2 C2-PKCα domains with a single DYSF-C2A domain: construct that contains 2 C2-PKCα domains with a single DYSF-C2A domain; SEQ ID NO: 13,Transfected fibers with construct targeted to / concentrated at TJs,[1],75%
"CC(=O)OCOC(=O)CN(CC(=O)OCOC(C)=O)c1ccccc1OCCOc1ccccc1N(CC(=O)OCOC(C)=O)CC(=O)OCOC(C)=O [BAPTA-AM, reference compound]","Restoration of WT phenotype (Ca2+ transient before and after OSI, Ca2+ waves)",[2]; 10 nM added to cultured A/J myofibers,effectively restores A/J myofibers to the WT phenotype
CC(=O)OCOC(=O)CN(CC(=O)OCOC(C)=O)c1ccc(C)cc1OCCOc1cc(-c2c3cc(F)c(=O)cc-3oc3cc(OCOC(C)=O)c(F)cc23)ccc1N(CC(=O)OCOC(C)=O)CC(=O)OCOC(C)=O [Fluo4-AM],Intracellular vs extracellular concentration,cultured myofibers,7-10 fold
"CCCCCCCCCCCCCC(=O)O[C@@H]1[C@@H](C)[C@@]2(O)[C@@H](C=C(CO)C[C@]3(O)C(=O)C(C)=C[C@@H]23)[C@@H]2C(C)(C)[C@]12OC(C)=O [PMA, phorbol 12-myristate 13-acetate, reference compound]",Effect on amplitude of Ca2+ transients,[2],significantly alter the amplitude of the Ca^2+ transients
same,Effect on colocalization of dysferlin and PKCα in myofibers and on co-IP from HEK cells,dysferlin and PKCα,"neither phorbol 12-myristate 13-acetate (PMA) nor staurosporine, drugs that activate and inhibit PKCα, respectively, have any effect"
O=C1CN(/N=C/c2ccc(-c3ccc([N+](=O)[O-])cc3)o2)C(O)=N1 [dantrolene],"Ca2+ signaling (Ca2+ transient amplitude, loss after OSI, waves), earlier studies",[3],prevented these changes
COc1ccc([C@@H]2Sc3ccccc3N(CCN(C)C)C(=O)[C@@H]2OC(C)=O)cc1 [diltiazem],"Ca2+ signaling (Ca2+ transient amplitude, loss after OSI, waves), earlier studies",[3],prevented these changes
"CN[C@@H]1C[C@H]2O[C@@](C)([C@@H]1OC)n1c3ccccc3c3c4c(c5c6ccccc6n2c5c31)C(=O)NC4 [staurosporine, reference compound]",Effect on amplitude of Ca2+ transients,[2],significantly alter the amplitude of the Ca^2+ transients
A84V: full length dysferlin with polymorphism A84V in C2A [reference compound],Ca2+ signaling activity (restoring/protecting amplitude of the Ca2+ transient after OSI),[2],left dysferlin's Ca^2+ signaling activity intact
"C2 domain of PKCα: isolated C2 domain of PKCα (XP_024306597.1, residues 71-229), tagged with a Venus moiety",Ca2+ signaling activity (restoring/protecting amplitude of the Ca2+ transient after OSI),[2],completely without activity
same,Ca2+ signaling activity (restoring/protecting amplitude of the Ca2+ transient after OSI),[2]; listed as PKCα-C2,failed to replicate the effects of DYSF-C2A
same,Ca2+ signaling activity (restoring/protecting amplitude of the Ca2+ transient after OSI),[2]; listed as PKCα-C2 domain,inactive
same,Membrane repair activity,FDB muscles of A/J mice [4],inactive
"C2-PKCα-DYSF-C2A: chimeric construct with C2-PKCα just N-terminal to DYSF-C2A, tagged with Venus; SEQ ID NO: 11",Ca2+ signaling activity (restoring/protecting amplitude of the Ca2+ transient after OSI),[2],results identical to WT DYSF; also recorded: indistinguishable from WT DYSF in restoring the amplitude of the Ca^2+ transient
same,Ca2+ wave frequency / suppression of Ca2+ waves after OSI,[2],almost as effective in suppressing Ca^2+ waves
same,y-intercept for Ca transient (normalized Ca release vs amount of Venus construct in each fiber),[2],3.7
same,y-intercept for wave frequency (Ca wave frequency vs amount of Venus construct in each fiber),[2],0.11
same,Membrane repair activity,FDB muscles of A/J mice [4],improved repair as well as WT DYSF; also recorded: just as effective as WT DYSF in supporting membrane repair
same,Transfected fibers with construct targeted to / concentrated at TJs,[1],~25%
"DYSF-C2A: C2A domain of dysferlin (AF075575.1, amino acids 1-100) expressed on its own as a Venus fusion protein; SEQ ID NO: 4",Ca2+ signaling activity (restoring/protecting amplitude of the Ca2+ transient after OSI),[2],intermediate between Venus (negative control) and WT DYSF (positive control) controls; also recorded: partially restored some Ca^2+ signaling activity
same,Ca2+ wave frequency / suppression of Ca2+ waves after OSI,[2],"low frequency of Ca^2+ waves, only slightly more than with WT DYSF"
same,y-intercept for Ca transient (normalized Ca release vs amount of Venus construct in each fiber),[2],0.47
same,y-intercept for wave frequency (Ca wave frequency vs amount of Venus construct in each fiber),[2],0.37
same,Membrane repair activity,FDB muscles of A/J mice [4],improved repair as well as WT DYSF; also recorded: fully stabilized membrane repair activity
Rhod-2,Solubility in DMSO relative to BAPTA,Solubility in DMSO,~20 × lower
V67D: full length dysferlin with pathogenic mutation V67D in C2A [reference compound],Ca2+ signaling activity (restoring/protecting amplitude of the Ca2+ transient after OSI),[2],inactivated full length dysferlin
V68L: full length dysferlin with polymorphism V68L in C2A [reference compound],Ca2+ signaling activity (restoring/protecting amplitude of the Ca2+ transient after OSI),[2],left dysferlin's Ca^2+ signaling activity intact
W52R: full length dysferlin with pathogenic mutation W52R in C2A [reference compound],Ca2+ signaling activity (restoring/protecting amplitude of the Ca2+ transient after OSI),[2],inactivated full length dysferlin
"WT dysferlin: wild type full length dysferlin introduced by electroporation, positive control","Ca2+ signaling (Ca2+ transient amplitude, loss after OSI, waves), earlier studies",[3],restores full activity
same,"Ca2+ signaling (Ca2+ transient amplitude, loss after OSI, waves), earlier studies",[3]; listed as wild type dysferlin,restores the amplitude of Ca^2+ transients to WT levels
same,"Membrane repair, earlier studies",FDB muscles of A/J mice [5],restores full activity
